From patent publication US8821847B2, “Perfume compositions” (Givaudan Nederland Services B.V., priority 2006, dated 2014)

System: P. vulgaris NCTC4175
Test: Urease assay: effect of fragrance on ammonia production (pH of urea-supplemented microbial suspension)
Type: cell-based
Conditions: result in words
Method: Urease Assay—Estimation of Fragrance and Fragrance Ingredients Effect on Ammonia Production The method adopted was based on the rapid method devised by C. A. Stuart, Elizabeth van Stratum and Robert Rustigan Further Studies on Urease Production by Proteus and Related Organisms J. Bacteriol. 1945, 49:437-444. SSR Medium: 380 ml distilled water, 364 mg KH2PO4, 380 mg Na2HPO4, 8 g Urea, 40 mg Yeast extract, 20 ml 0.02% phenol red indicator, pH 6.8, solution filter sterilised. Culture: Liquid culture of P. vulgaris NCTC4175 was prepared by adding loops of fresh culture from solid media (Tryptone Soya Agar) to sterile 0.1% special peptone solution. Absorbance of culture was adjusted to be OD610 nm>2.3 Fragrances were aseptically prepared at 2500 ppm in medium in duplicate (5 ml volumes) using solubiser Synperonic 91/10 at ratio of 1:2 fragrance: solubiliser. In addition 5 ml volumes of positive and negative controls were prepared. Positive controls and all test solutions were inoculated by adding 200 μl of prepared culture, mixed and incubated for 24 hours @37° C. No culture was added to the negative growth controls. Initially solutions were orange in colour. Urease activity can be noted by the production of a purple/red colour. The degree of urease activity/ammonia production was assessed by pH electrode.

## CCC(=O)N(CC)c1cccc(C)c1 [N-ethyl-N-(3-methylphenyl)propananoide, N-ethyl-N-(3-methylphenyl)propanamide]
  urease inhibitory efficacy: highly active
